Measurements reported in patent US20220144853A1, “IMIDAZOLINE DERIVATIVES AS CXCR4 MODULATORS” (Université de Paris, priority 2019, published 2022).
Counter-ions that a name gives are not always drawn.

Test system: IFN production by activated PBMCs
Assay: IFN production by R848-activated PBMCs from healthy donors, twINNE reporter cell line
Assay type: cell-based, human
Conditions: Homo sapiens, PBMC, means of two results over 2 healthy donors, R848 5 μg/mL, IT1t: mean over all experiments, read-out: IC50 of anti-inflammatory activity (IFN production)
Experimental: 2) The blood from healthy donors was also obtained from “Etablissement Français du Sang” (convention #19/EFS/029), Paris, France.
In vitro experiments were performed using human peripheral blood mononuclear cells (PBMCs) isolated by density centrifugation from peripheral blood leukocyte separation medium, lymphoprep (Stemcell Technologies).
PBMCs were cultured in RPMI 1640 (Sigma-Aldrich, MO, USA) containing 10% heat-inactivated fetal bovine serum (Sigma-Aldrich, MO, USA) at 37° C./5% CO2.
2) The PBMCs used herein were prepared as described in part A “immune cells preparation”, section 2) above. PBMCs were seeded at 4.10^6/mL. […] Cells were then stimulated with the TLR7/8 agonist resiquimod—R848 (Sigma-Aldrich, MO, USA) at 5 μg/mL.
2) To quantify the secretion of functional IFN, a biological assay based on a stable cell line where luciferase reporter gene is controlled by five Interferon-Stimulated Response Elements (twINNE cell line) was used. It is important to note that the twINNE cell line is the same as the above mentioned STING-37 cell line but with constitutively expressed nanoluciferase. First, supernatants of R848-stimulated PBMCs (see part B, section 2) above) were harvested after 24 h of stimulation and frozen at −20° C. for storage. Then, supernatants were dispensed in culture wells of a 96-well plate containing 35.103 twINNE cells per well in Dulbecco's Modified Eagle's Medium supplemented with 10% Foetal Bovine Serum, 100 U/mL Penicillin and 100 μg/mL Streptomycin (1% Pen-Strep) and 1 mM glutamine (Sigma-Aldrich, MO, USA) at 37° C./5% […]. After 24 h of culture, luciferase activity was determined by adding 60 μL of Bright-Go reagents (Promega, Wisconsin, USA) to culture wells and measuring bioluminescence with EnSpire Multimode Plate Reader (PerkinElmer, Massachusetts, USA). When stated, for IC50 calculation, dose-response curves fitted using the nonlin fit (variable slope) analysis in GraphPad Prism software (GraphPad Software, California, USA).

| Compound | IC50 [µM] |
| --- | --- |
| C1=C(CSC2=N[C@H]3COC[C@H]3N2)N2C(=N[C@@H]3COC[C@@H]32)S1 (mixture of isomers) [Example 36, mixture of (4aS,7aR)-3-((((3aS,6aR)-3a,4,6,6a-tetrahydro-1H-furo[3,4-d]imidazol-2-yl)thio)methyl)-4a,5,7,7a-tetrahydrofuro[3′,4′:4,5]imidazo[2,1-b]thiazole dihydrochloride and (4aR,7aS)-3-((((3aR,6aS)-3a,4,6,6a-tetrahydro-1H-furo[3,4-d]imidazol-2-yl)thio)methyl)-4a,5,7,7a-tetrahydrofuro[3′,4′: 4,5]imidazo[2,1-b]thiazole dihydrochloride] | ≥ 31 |
| CC1(C)CN=C(SCC2=CSC3=N[C@H]4CCCC(C4)N23)N1 (racemic) [Example 23, cis-3-(((5,5-dimethyl-4,5-dihydro-1H-imidazol-2-yl)thio)methyl)-6,7,8,9-tetrahydro-5H-5,9-methanothiazolo[3,2-a][1,3]diazocine dihydrochloride] | ≥ 31 |
| CCCCC1CN=C(SCC2=CSC3=N[C@H]4CCCCC4N23)N1 (mixture of isomers) [Example 54, trans-3-(((5-butyl-4,5-dihydro-1H-imidazol-2-yl)thio)methyl)-4a,5,6,7,8,8a-hexahydrobenzo[4,5]imidazo[2,1-b]thiazole dihydrochloride] | ≤ 10 |
| C1=C(CSC2=NCC(Cc3ccccc3)N2)N2C(=N[C@H]3CCCCC32)S1 (mixture of isomers) [Example 55, trans-3-(((5-benzyl-4,5-dihydro-1H-imidazol-2-yl)thio)methyl)-4a,5,6,7,8,8a-hexahydrobenzo[4,5]imidazo[2,1-b]thiazole dihydrochloride] | ≤ 10 |
| C1=C(CSC2=N[C@H]3CCCC[C@@H]3N2)N2C(=N[C@H]3CCCCC32)S1 (mixture of isomers) [Example 56, trans-3-((((3aS,7aS)-3a,4,5,6,7,7a-hexahydro-1H-benzo[d]imidazol-2-yl)thio)methyl)-4a,5,6,7,8,8a-hexahydrobenzo[4,5]imidazo[2,1-b]thiazole dihydrochloride] | ≤ 10 |
| C1=C(CSC2=NCCN2)N2C(=N[C@H]3CCCCC32)S1 (mixture of isomers) [Example 59, trans-3-(((4,5-dihydro-1H-imidazol-2-yl)thio)methyl)-4a,5,6,7,8,8a-hexahydrobenzo[4,5]imidazo[2,1-b]thiazole dihydrochloride] | ≤ 10 |
| CC(C)[C@@H]1N=C2SC=C(CSC3=NCC(C)(C)N3)N2[C@H]1C(C)C (racemic) [Example 62, trans-3-(((5,5-dimethyl-4,5-dihydro-1H-imidazol-2-yl)thio)methyl)-5,6-diisopropyl-5,6-dihydroimidazo[2,1-b]thiazole dihydrochloride] | 10 to 31 |
| CC1(C)CN2C(CSC3=N[C@H]4CCCC[C@@H]4N3)=CSC2=N1 [Example 4, 3-((((3aS,7aS)-3a,4,5,6,7,7a-hexahydro-1H-benzo[d]imidazol-2-yl)thio)methyl)-6,6-dimethyl-5,6-dihydroimidazo[2,1-b]thiazole dihydrochloride] | ≤ 10 |
| CC1(C)CN2C(CSC3=N[C@@H]4CCCC[C@@H]4N3)=CSC2=N1 [Example 5, 3-((((3R,7aS)-3a,4,5,6,7,7a-hexahydro-1H-benzo[d]imidazol-2-yl)thio)methyl)-6,6-dimethyl-5,6-dihydroimidazo[2,1-b]thiazole dihydrochloride] | 10 to 31 |
| C1=C(CSC2=NCCN2)N2CCN=C2S1 [Example 6, 3-(((4,5-dihydro-1H-imidazol-2-yl)thio)methyl)-5,6-dihydroimidazo[2,1-b]thiazole dihydrochloride] | 10 to 31 |
| CC1(C)CN2C(CSC3=NCCN3)=CSC2=N1 [Example 8, 3-(((4,5-dihydro-1H-imidazol-2-yl)thio)methyl)-6,6-dimethyl-5,6-dihydroimidazo[2,1-b]thiazole dihydrochloride] | 10 to 31 |
| CC1(C)CN2C(CSC3=NCCCN3)=CSC2=N1 [Example 9, 6,6-dimethyl-3-(((1,4,5,6-tetrahydropyrimidin-2-yl)thio)methyl)-5,6-dihydroimidazo[2,1-b]thiazole dihydrochloride] | ≥ 31 |
| CN1CCN=C1SCC1=CSC2=NC(C)(C)CN12 [Example 11, 6,6-dimethyl-3-(((1-methyl-4,5-dihydro-1H-imidazol-2-yl)thio)methyl)-5,6-dihydroimidazo[2,1-b]thiazole dihydrochloride] | ≤ 10 |
| CC1(C)CN2C(CSC3=NCCCCN3)=CSC2=N1 [Example 12, 6,6-dimethyl-3-(((4,5,6,7-tetrahydro-1H-1,3-diazepin-2-yl)thio)methyl)-5,6-dihydroimidazo[2,1-b]thiazole dihydrochloride] | ≥ 31 |
| CCCCC1CN=C(SCC2=CSC3=NC(C)(C)CN23)N1 (centres unmarked) [Example 13, 3-(((5-butyl-4,5-dihydro-1H-imidazol-2-yl)thio)methyl)-6,6-dimethyl-5,6-dihydroimidazo[2,1-b]thiazole dihydrochloride] | ≤ 10 |
| CC1(C)CN=C(SCC2=CSC3=NCCCN23)N1 [Example 14, 3-(((5,5-dimethyl-4,5-dihydro-1H-imidazol-2-yl)thio)methyl)-6,7-dihydro-5H-thiazolo[3,2-a]pyrimidine dihydrochloride] | ≥ 31 |
| CC1(C)CN=C(SCC2=CSC3=NCCCCN23)N1 [Example 15, 3-(((5,5-dimethyl-4,5-dihydro-1H-imidazol-2-yl)thio)methyl)-5,6,7,8-tetrahydrothiazolo[3,2-a][1,3]diazepine dihydrochloride] | ≥ 31 |
| CC1(C)CN2C(CSC3=NC(C)(C)C(C)(C)N3)=CSC2=N1 [Example 16, 6,6-dimethyl-3-(((4,4,5,5-tetramethyl-4,5-dihydro-1H-imidazol-2-yl)thio)methyl)-5,6-dihydroimidazo[2,1-b]thiazole dihydrochloride] | ≥ 31 |
| CCCCC1CN2C(CSC3=NCC(C)(C)N3)=CSC2=N1 (centres unmarked) [Example 19, 6-butyl-3-(((4,4-dimethyl-4,5-dihydro-1H-imidazol-2-yl)thio)methyl)-5,6-dihydroinidazo[2,1-b]thiazole dihydrochloride] | 10 to 31 |
| CC1(C)CN=C(SCC2=CSC3=NC(C)(C)C(C)(C)N23)N1 [Example 20, 3-(((5,5-dimethyl-4,5-dihydro-1H-imidazol-2-yl)thio)methyl)-5,5,6,6-tetramethyl-5,6-dihydroimidazo[2,1-b]thiazole dihydrochloride] | 10 to 31 |
| CC1(C)CN=C(SCC2=CSC3=NCCN23)N1 [Example 21, 3-(((5,5-dimethyl-4,5-dihydro-1H-imidazol-2-yl)thio)methyl)-5,6-dihydroimidazo[2,1-b]thiazole dihydrochloride] | 10 to 31 |
| CC1(C)CN2C(CSC3=N[C@@H]4CCC[C@@H](C4)N3)=CSC2=N1 [Example 22, 3-((((1R,5S)-2,4-diazabicyclo[3.3.1]non-2-en-3-yl)thio)methyl)-6,6-dimethyl-5,6-dihydroimidazo[2,1-b]thiazole dihydrochloride] | ≥ 31 |
| CC1(C)CN2C(CSC3=NCC4(CC4)N3)=CSC2=N1 [Example 24, 3-(((4,6-diazaspiro[2.4]hept-5-en-5-yl)thio)methyl)-6,6-dimethyl-5,6-dihydroimidazo[2,1-b]thiazole dihydrochloride] | 10 to 31 |
| CC1(C)CN2C(CSC3=N[C@H]4COC[C@H]4N3)=CSC2=N1 [Example 25, (3aR,6aS)-2-(((6,6-dimethyl-5,6-dihydroinidazo[2,1-b]thiazol-3-yl)methyl)thio)-3a,4,6,6a-tetrahydro-1H-furo[3,4-d]imidazole dihydrochloride] | ≥ 31 |
| C1=C(CSC2=NCCN2)N2CCCN=C2S1 [Example 26, 3-(((4,5-dihydro-1H-imidazol-2-yl)thio)methyl)-6,7-dihydro-5H-thiazolo[3,2-a]pyrimidine dihydrochloride] | ≥ 31 |
| C1=C(CSC2=NCCN2)N2CCCCN=C2S1 [Example 27, 3-(((4,5-dihydro-1H-imidazol-2-yl)thio)methyl)-5,6,7,8-tetrahydrothiazolo[3,2-a][1,3]diazepine dihydrochloride] | ≥ 31 |
| CC1(C)CN=C(SCC2=CSC3=NC(C)(C)CN23)NC1 [Example 28, 3-(((5,5-dimethyl-1,4,5,6-tetrahydropyrimidin-2-yl)thio)methyl)-6,6-dimethyl-5,6-dihydroimidazo[2,1-b]thiazole dihydrochloride] | ≥ 31 |
| C1=C(CSC2=NCCCN2)N2CCCN=C2S1 [Example 29, 3-(((1,4,5,6-tetrahydropyrimidin-2-yl)thio)methyl)-6,7-dihydro-5H-thiazolo[3,2-a]pyrimidine dihydrochloride] | ≥ 31 |
| CCCCC1CN=C(SCC2=CSC3=NCCN23)N1 (centres unmarked) [Example 30, 3-(((5-butyl-4,5-dihydro-1H-imidazol-2-yl)thio)methyl)-5,6-dihydroimidazo[2,1-b]thiazole dihydrochloride] | ≤ 10 |
